Test results taken from US20220081412A1, “QUINOLINYL-PYRAZINE-CARBOXAMIDE COMPOUNDS AND USES THEREOF” (The Regents of the University of Michigan, priority 2018, published 2022).

Tested on: MIA PaCa-2 cells
Assay: Bru-seq analysis for nascent RNA synthesis (log2FC of genes, GSEA gene sets)
Type: cell-based, human
Settings: 4 h
[1] = GO_NUCLEAR_NUCLEOSOME, upregulated
[2] = GO_ORGANIC_HYDROXY_COMPOUND_BIOSYNTHETIC_PROCESS, upregulated
[3] = GO_PROTEIN_DNA_COMPLEX, upregulated
[4] = GO_REGULATION_OF_ENDOPLASMIC_RETICULUM_STRESS_INDUCED_INTRINSIC_APOPTOTIC_SIGNALING_PATHWAY, upregulated
[5] = GO_REGULATION_OF_STEROID_BIOSYNTHETIC_PROCESS, upregulated
[6] = GO_REGULATION_OF_STEROID_METABOLIC_PROCESS, upregulated
[7] = GO_RIBOSOMAL_SUBUNIT, upregulated
[8] = GO_STEROID_BIOSYNTHETIC_PROCESS, upregulated
[9] = GO_STEROID_METABOLIC_PROCESS, upregulated
[10] = GO_STEROL_BIOSYNTHETIC_PROCESS, upregulated
[11] = GO_STEROL_METABOLIC_PROCESS, upregulated
[12] = GO_STRUCTURAL_CONSTITUENT_OF_RIBOSOME, upregulated
[13] = HAMAI_APOPTOSIS_VIA_TRAIL_UP, C2, downregulated
[14] = HUTTMANN_B_CLL_POOR_SURVIVAL_DN, C2, downregulated
[15] = KEGG_ACUTE_MYELOID_LEUKEMIA, upregulated
[16] = KEGG_ADIPOCYTOKINE_SIGNALING_PATHWAY, upregulated
[17] = KEGG_BIOSYNTHESIS_OF_UNSATURATED_FATTY_ACIDS, upregulated
[18] = KEGG_CARDIAC_MUSCLE_CONTRACTION, upregulated
[19] = KEGG_ENDOMETRIAL_CANCER, upregulated
[20] = KEGG_FC_EPSILON_RI_SIGNALING_PATHWAY, upregulated
[21] = KEGG_GLYCOLYSIS_GLUCONEOGENESIS, upregulated
[22] = KEGG_INSULIN_SIGNALING_PATHWAY, upregulated
[23] = KEGG_LONG_TERM_DEPRESSION, upregulated
[24] = KEGG_MTOR_SIGNALING_PATHWAY, upregulated
[25] = KEGG_NON_SMALL_CELL_LUNG_CANCER, upregulated
[26] = KEGG_OXIDATIVE_PHOSPHORYLATION, upregulated
[27] = KEGG_PARKINSONS_DISEASE, upregulated
[28] = KEGG_PORPHYRIN_AND_CHLOROPHYLL_METABOLISM, upregulated
[29] = KEGG_PPAR_SIGNALING_PATHWAY, upregulated
[30] = KEGG_PROGESTERONE_MEDIATED_OOCYTE_MATURATION, upregulated
[31] = KEGG_PROSTATE_CANCER, upregulated
[32] = KEGG_RENAL_CELL_CARCINOMA, upregulated
[33] = KEGG_SNARE_INTERACTIONS_IN_VESICULAR_TRANSPORT, upregulated
[34] = KEGG_SYSTEMIC_LUPUS_ERYTHEMATOSUS, upregulated
[35] = KEGG_VEGF_SIGNALING_PATHWAY, upregulated
[36] = KRCTCNNNNMANAGC_UNKNOWN, TFBT, upregulated
[37] = MILI_PSEUDOPODIA_HAPTOTAXIS_UP, C2, downregulated
[38] = NIKOLSKY_BREAST_CANCER_8Q12_Q22_AMPLICON, C2, downregulated

## Cc1cc(NC(=O)c2cnc(N3CCNCC3)cn2)c2ncccc2c1 [J28, N-(6-methylquinolin-8-yl)-5-(piperazin-1-yl)pyrazine-2-carboxamide]
[1]
  ES: 0.745
  NES: 2.088
[2]
  ES: 0.503
  NES: 1.959
[3]
  ES: 0.554
  NES: 2.251
[4]
  ES: 0.678
  NES: 2.024
[5]
  ES: 0.710
  NES: 2.097
[6]
  ES: 0.615
  NES: 2.031
[7]
  ES: 0.469
  NES: 1.976
[8]
  ES: 0.605
  NES: 2.176
[9]
  ES: 0.523
  NES: 2.100
[10]
  ES: 0.757
  NES: 2.428
[11]
  ES: 0.651
  NES: 2.434
[12]
  ES: 0.452
  NES: 1.990
GPR135, downregulated protein-coding gene
  log2FC: −1.08
GRIN2C, downregulated protein-coding gene
  log2FC: −0.95
[13]
  ES: −0.508
  NES: −2.848
HEB_Q6, TFBT, upregulated
  ES: 0.415
  NES: 1.688
HRH4, downregulated protein-coding gene
  log2FC: −0.86
[14]
  ES: −0.605
  NES: −2.158
IFT80, downregulated protein-coding gene
  log2FC: −1.12
[15]
  ES: 0.524
  NES: 1.872
[16]
  ES: 0.429
  NES: 1.493
[17]
  ES: 0.555
  NES: 1.531
[18]
  ES: 0.424
  NES: 1.386
[19]
  ES: 0.437
  NES: 1.492
[20]
  ES: 0.442
  NES: 1.464
[21]
  ES: 0.478
  NES: 1.563
[22]
  ES: 0.349
  NES: 1.403
[23]
  ES: 0.461
  NES: 1.491
KEGG_LYSOSOME, upregulated
  ES: 0.494
  NES: 1.958
[24]
  ES: 0.447
  NES: 1.469
[25]
  ES: 0.477
  NES: 1.610
[26]
  ES: 0.387
  NES: 1.544
[27]
  ES: 0.358
  NES: 1.404
KEGG_PEROXISOME, upregulated
  ES: 0.443
  NES: 1.643
[28]
  ES: 0.496
  NES: 1.448
[29]
  ES: 0.485
  NES: 1.573
[30]
  ES: 0.434
  NES: 1.602
[31]
  ES: 0.402
  NES: 1.527
[32]
  ES: 0.393
  NES: 1.392
KEGG_RIBOSOME, upregulated
  ES: 0.534
  NES: 2.148
[33]
  ES: 0.503
  NES: 1.647
[34]
  ES: 0.661
  NES: 2.271
[35]
  ES: 0.501
  NES: 1.705
KLF10, downregulated protein-coding gene
  log2FC: −0.88
[36]
  ES: 0.784
  NES: 2.441
LINC01337, downregulated noncoding gene
  log2FC: −1.06
LINC01764, downregulated noncoding gene
  log2FC: −1.03
LINC01930, downregulated noncoding gene
  log2FC: −1.08
MALAT1, downregulated noncoding gene
  log2FC: −1.19
MAZR_01, TFBT, upregulated
  ES: 0.380
  NES: 1.598
[37]
  ES: −0.420
  NES: −2.372
MTND2P28, downregulated noncoding gene
  log2FC: −0.97
NFE2_01, TFBT, upregulated
  ES: 0.387
  NES: 1.630
NFY_Q6_01, TFBT, upregulated
  ES: 0.370
  NES: 1.617
[38]
  ES: −0.499
  NES: −2.099
NRF2_01, TFBT, upregulated
  ES: 0.356
  NES: 1.597
